“Also recorded” adds a separate entry of the source. Residues, ends and D or L forms follow the SMILES beside them. No end group written: not given here.
Key:
Type in all cases: biochemical
[1] = molecular target: T1, rat brain farnesyl:protein transferase (Rattus norvegicus, UniProt Q02293+Q04631); test: Farnesyl:protein transferase inhibition: competition with p21H-ras for [3H]farnesyl from [3H]FPP, partially purified enzyme, TCA filter assay
T1 construct: Brains from 50 male Sprague-Dawley rats (100-150 g) were homogenized; from tissue
Description: (§1) Farnesyl:protein transferase activity was determined by measuring the amount of ^3H-farnesol transferred from ^3H]farnesyl pyrophosphate ([^3H]FPP) to p21^H-ras protein. The standard reaction mixture contained the following concentrations of components in a final volume of 25 μl: 50 mM Tris-chloride (pH 7.5), 50 μM ZnCl2, 20 mM KCl, 1 mM DTT, and 40 μM p21^H-ras. The mixture also contained 10 pmoles of [^3H]FPP (−30,000 dpm/pmol) and 1.8-3.5 μg of partially purified farnesyl:protein transferase (see below). After incubation for 1 h at 37° C. in 12×75-mm borosilicate tubes, the reaction was stopped by addition of 0.5 ml of 4% SDS and then 0.5 ml of 30% trichloroacetic acid (TCA).
The tubes were vortexed and left on ice for 45-60 min, after which 2 ml of a 6% TCA/2% SDS solution were added. […] The tubes were rinsed twice with 2 ml of the same solution, and each filter was washed five times with 2 ml of 6% TCA, dried, and counted in a scintillation counter. One unit of activity is defined as the amount of enzyme that transfers 1 pmol of [^3H]farnesol from [^3H]FPP into acid-precipitable p21^H-ras per hour under the standard conditions.
In the enzyme characterization experiments of FIGS. 1-4, 8, and 9, a partially purified fraction of farnesyl:protein transferase was used. […] The column was equilibrated with 50 mM Tris-chloride (pH 7.5) containing 1 mM DTT, 0.2 M NaCl, 20 μM ZnCl2, and 0.2% octyl-β-glucopyranoside and eluted with the same buffer at a flow rate of 15 ml/h.
This blank value was subtracted before calculating “% of control” values.

[2] = molecular target: T2, purified farnesyl:protein transferase (Rattus norvegicus, UniProt Q02293+Q04631); test: Farnesylation of tetrapeptides by purified farnesyl:protein transferase, thin layer chromatography (substrate or pure inhibitor); conditions: 3.6 μM tetrapeptide, purified enzyme (FIG. 15)
T2 construct: Brains from 50 male Sprague-Dawley rats (100-150 g) were homogenized; from tissue
Description: FIG. 15. […] The standard assay mixture (25 μl) contained 17 pmol [^3H]FPP (44,000 dpm/pmol), 5 ng of purified farnesyl:protein transferase, 0.2% (w/v) octyl-β-D-glucoside, and 3.6 μM of the indicated tetrapeptide. After incubation for 15 min at 37° C., the entire reaction mixture was subjected to thin layer chromatography for 4 h on Polygram SIL G sheet (Brinkmann Instruments) in a solvent system containing N-propanol/concentrated NH4OH/water (6:3:1). The TLC sheet was then dried, sprayed with ENHANCE Spray (Dupont-New England Nuclear) and exposed to Kodak X-OMAT AR Film XAR-5 for 25 h at −70° C.

[3] = molecular target: T3, partially purified rat brain farnesyl:protein transferase (Rattus norvegicus, UniProt Q02293+Q04631); test: Substrate saturation of farnesyl:protein transferase (FIG. 2); conditions: 1 h at 37° C.
T3 construct: Brains from 50 male Sprague-Dawley rats (100-150 g) were homogenized; from tissue
Description: FIG. 2. Substrate Saturation Curves for Farnesyl:Protein Transferase. Panel A, each standard reaction mixture contained 1.8 μg of partially purified farnesyl transferase, 40 μg p21^H-ras, [^3H]FPP (250,000 dpm); and varying amounts of unlabeled FPP to give the indicated final concentration of [^3H]FPP. […] For both panels, assays were carried out in duplicate for 1 h at 37° C., and TCA-precipitable radioactivity was measured as described in the Example.
as §1, with “After incubation for 1 h at 37° C. in 12×75-mm borosilicate tubes, the reaction was stopped by addition of 0.5 ml of 4% SDS and then 0.5 ml of 30% trichloroacetic acid (TCA).” left out
The tubes were vortexed and left on ice for 45-60 min, after which 2 ml of a 6% TCA/2% SDS solution were added. […] The tubes were rinsed twice with 2 ml of the same solution, and each filter was washed five times with 2 ml of 6% TCA, dried, and counted in a scintillation counter. […]

Molecule | inhibitory activity against farnesylation of p21H-ras (in words) [1] | pure inhibitor or substrate for farnesylation [2] | concentration giving half-maximal reaction velocity [3]
CC[C@H](C)[C@H](NC(=O)[C@@H](NC(=O)[C@@H](N)CS)C(C)C)C(=O)N[C@@H](CCSC)C(=O)O [CVIM] (H-CVIM-OH; N-terminus and C-terminus assumed) | sufficient for competition | Farnesylation | 
CC(C)=CCC/C(C)=C/CC/C(C)=C/COP(=O)(O)OP(=O)(O)O [[^3H]farnesyl pyrophosphate, [1-^3H]Farnesyl pyrophosphate] |  |  | approximately 0.5 μM
CFVM: related peptide, inhibitory through action as a substrate for farnesylation (CVFM) |  | not a “pure” inhibitor | 
S-acetoamidated CVIM: CVIM alkylated on cysteine with iodoacetamide (C(acetamide)VIM) | appears to lose much of its inhibitory activity |  | 
TKVCIM: hexapeptide with cysteine transposed from fourth to third position from the COOH-terminus | severely reduced inhibitory activity; also recorded: inhibitory activity of the peptide is reversed |  | 

— patent publication US6632626B1, “Methods of assaying farnesyl transferase” (Board of Regents, The University of Texas System, priority 1990, dated 2003)
